# Activity calls are given as the source filed them. No cut-off for these calls is given here.
# Experiments:
# RAW264.7 [1] = test: Cytotoxicity against mouse RAW264.7 cells assessed as reduction in cell viability at 60 uM measured after 24 hrs by MTT assay; assay type: toxicity, cell-based; details: raw264.7, 24 h
# RAW264.7 [2] = test: Antiinflammatory activity against LPS-induced mouse RAW264.7 cells assessed as decrease in TNF-alpha mRNA expression at 10 uM incubated for 8 hrs by RT-PCR analysis; assay type: functional, cell-based
# RAW264.7 [3] = test: Antiinflammatory activity against LPS-induced mouse RAW264.7 cells assessed as decrease in IL-6 mRNA expression at 10 uM incubated for 8 hrs by RT-PCR analysis; assay type: functional, cell-based
# RAW264.7 [4] = test: Antiinflammatory activity against LPS-induced mouse RAW264.7 cells assessed as decrease in IL-1beta mRNA expression at 10 uM incubated for 8 hrs by RT-PCR analysis; assay type: functional, cell-based
# Mus musculus [5] = test: In vivo inhibition of PI3K-AKT phosphorylation in LPS-induced […] C57BL/6 mouse model at 5 to 25 mg/kg, ip measured for 24 hrs by Western blot analysis; assay type: functional, organism-based; details: dose 5-25 mg/kg
# RAW264.7 [6] = test: Antiinflammatory activity against LPS-induced mouse RAW264.7 cells assessed as decrease in TNF-alpha mRNA expression incubated for 8 hrs by RT-PCR analysis; assay type: functional, cell-based; details: dose <= 20.0 µM
# RAW264.7 [7] = test: Antiinflammatory activity against LPS-induced mouse RAW264.7 cells assessed as decrease in IL-6 mRNA expression incubated for 8 hrs by RT-PCR analysis; assay type: functional, cell-based; details: dose <= 20.0 µM
# RAW264.7 [8] = test: Antiinflammatory activity against LPS-induced mouse RAW264.7 cells assessed as decrease in IL-1beta mRNA expression incubated for 8 hrs by RT-PCR analysis; assay type: functional, cell-based; details: dose <= 20.0 µM
# RAW264.7 [9] = test: Antiinflammatory activity against LPS-induced mouse RAW264.7 cells assessed as suppression of iNOS mRNA expression incubated for 8 hrs by RT-PCR analysis; assay type: functional, cell-based; details: dose <= 20.0 µM
# RAW264.7 [10] = test: Antiinflammatory activity against LPS-induced mouse RAW264.7 cells assessed as inhibition of NO release incubated for 8 hrs […]; assay type: functional, cell-based; details: dose <= 20.0 µM
# RAW264.7 [11] = test: Antiinflammatory activity against mouse RAW264.7 cells assessed as reduction in LPS-induced ROS production incubated for 8 hrs by DCFH-DA staining based flow cytometry analysis; assay type: functional, cell-based; details: dose <= 20.0 µM
# RAW264.7 [12] = test: Antiinflammatory activity against LPS-induced mouse RAW264.7 cells assessed as downregulation of PI3K level incubated for 8 hrs by Western blot analysis; assay type: functional, cell-based; details: dose <= 20.0 µM
# RAW264.7 [13] = test: Antiinflammatory activity against LPS-induced mouse RAW264.7 cells assessed as downregulation of AKT level incubated for 8 hrs by Western blot analysis; assay type: functional, cell-based; details: dose <= 20.0 µM
# RAW264.7 [14] = test: Antiinflammatory activity against LPS-induced mouse RAW264.7 cells assessed as downregulation of total PI3K level incubated for 8 hrs by Western blot analysis; assay type: functional, cell-based; details: dose <= 20.0 µM
# RAW264.7 [15] = test: Antiinflammatory activity against LPS-induced mouse RAW264.7 cells assessed as downregulation of total AKT level incubated for 8 hrs by Western blot analysis; assay type: functional, cell-based; details: dose <= 20.0 µM
# RAW264.7 [16] = test: Antiinflammatory activity against LPS-induced mouse RAW264.7 cells assessed as decrease in IkappaBalpha level incubated for 8 hrs by Western blot analysis; assay type: functional, cell-based; details: dose <= 20.0 µM
# RAW264.7 [17] = test: Antiinflammatory activity against LPS-induced mouse RAW264.7 cells assessed as decrease in IkappaBalpha level incubated for 8 hrs by DAPI staining based immunofluorescence analysis; assay type: functional, cell-based; details: dose <= 20.0 µM
# RAW264.7 [18] = test: Antiinflammatory activity against LPS-induced mouse RAW264.7 cells assessed as decrease in NF-kappaB level incubated for 8 hrs by Western blot analysis; assay type: functional, cell-based; details: dose <= 20.0 µM
# RAW264.7 [19] = test: Antiinflammatory activity against LPS-induced mouse RAW264.7 cells assessed as decrease in NF-kappaB level incubated for 8 hrs by DAPI staining based immunofluorescence analysis; assay type: functional, cell-based; details: dose <= 20.0 µM
# RAW264.7 [20] = test: Antiinflammatory activity against LPS-induced mouse RAW264.7 cells assessed as decrease in nuclear translocation incubated for 8 hrs by Western blot analysis; assay type: functional, cell-based; details: dose <= 20.0 µM
# RAW264.7 [21] = test: Antiinflammatory activity against LPS-induced mouse RAW264.7 cells assessed as decrease in nuclear translocation incubated for 8 hrs by DAPI staining based immunofluorescence analysis; assay type: functional, cell-based; details: dose <= 20.0 µM
# RAW264.7 [22] = test: Antiinflammatory activity against LPS-induced mouse RAW264.7 cells transfected with AKT shRNA assessed as decrease in IL-1beta expression incubated for 8 hrs by Western blot analysis; assay type: functional, cell-based; details: dose <= 20.0 µM
# RAW264.7 [23] = test: Antiinflammatory activity against LPS-induced mouse RAW264.7 cells transfected with AKT shRNA assessed as decrease in IL-6 expression incubated for 8 hrs by Western blot analysis; assay type: functional, cell-based; details: dose <= 20.0 µM
# RAW264.7 [24] = test: Antiinflammatory activity against LPS-induced mouse RAW264.7 cells transfected with AKT shRNA assessed as decrease in TNF-alpha expression incubated for 8 hrs by Western blot analysis; assay type: functional, cell-based; details: dose <= 20.0 µM
# Mus musculus [25] = test: Antiinflammatory activity against LPS-induced […] in ip dosed C57BL/6 mouse model assessed as reduction in MDA level in serum incubated for 24 hrs; assay type: functional, organism-based; details: dose 5-25 mg/kg
# Mus musculus [26] = test: Antiinflammatory activity against LPS-induced […] in ip dosed C57BL/6 mouse model assessed as increase in SOD level in serum incubated for 24 hrs; assay type: functional, organism-based; details: dose 5-25 mg/kg
# Mus musculus [27] = test: Antiinflammatory activity against LPS-induced […] C57BL/6 mouse model assessed as reduction in lung injury score at 5 to 25 mg/kg, ip incubated for 24 hrs by H and E staining based analysis; assay type: functional, organism-based; details: dose 5-25 mg/kg
# Mus musculus [28] = test: Antiinflammatory activity against LPS-induced […] C57BL/6 mouse model assessed as reduction in TNF-alpha mRNA expression in lung at 5 to 25 mg/kg, ip incubated for 24 hrs by RT-PCR analysis; assay type: functional, organism-based; details: dose 5-25 mg/kg
# Mus musculus [29] = test: Antiinflammatory activity against LPS-induced […] C57BL/6 mouse model assessed as reduction in IL-6 mRNA expression in lung at 5 to 25 mg/kg, ip incubated for 24 hrs by RT-PCR analysis; assay type: functional, organism-based; details: dose 5-25 mg/kg
# Mus musculus [30] = test: Antiinflammatory activity against LPS-induced […] C57BL/6 mouse model assessed as reduction in IL-1beta mRNA expression in lung at 5 to 25 mg/kg, ip incubated for 24 hrs by RT-PCR analysis; assay type: functional, organism-based; details: dose 5-25 mg/kg
# Mus musculus [31] = test: In vivo inhibition of PI3K-AKT phosphorylation in LPS-induced […] C57BL/6 mouse model at 5 to 25 mg/kg, ip measured for 24 hrs by Immunohistochemistry analysis; assay type: functional, organism-based; details: dose 5-25 mg/kg
# Mus musculus [32] = test: Antiinflammatory activity against LPS-induced […] C57BL/6 mouse model assessed as reduction IkappaBalpha level in lung at 5 to 25 mg/kg, ip incubated for 24 hrs by Western blot analysis; assay type: functional, organism-based; details: dose 5-25 mg/kg
smiles,measurement,setting,value
COc1c(C(C)C)cc2c(=O)cc3c(cc2c1OC)C=CC(O)C3(C)C (configuration not stated),Activity,RAW264.7 [1],Toxic
CC(C)c1cc2c(c3c1OC(C)(C)O3)C=C1C=CC(=O)C(C)(C)C1=CC2,Activity,RAW264.7 [1],Toxic
CC(C)c1cc2c(c(O)c1O)C=C1C=CC(=O)C(C)(C)C1CC2=O (configuration not stated),Activity,RAW264.7 [1],Toxic
C[C@@H]1C[C@H]2[C@@H]3CCC4=CC(=O)C=C[C@]4(C)[C@@]3(F)[C@@H](O)C[C@]2(C)[C@@]1(O)C(=O)CO,Activity,RAW264.7 [2],Active
same,Activity,RAW264.7 [3],Active
same,Activity,RAW264.7 [4],Active
COc1c(C(C)C)cc2c(=O)cc3c(cc2c1OC)C=CC(=O)C3(C)C,inhibition,Mus musculus [5],Active
same,Activity,RAW264.7 [2],Active
same,Activity,RAW264.7 [3],Active
same,Activity,RAW264.7 [4],Active
same,Activity,RAW264.7 [6],Dose-Dependent Effect
same,Activity,RAW264.7 [7],Dose-Dependent Effect
same,Activity,RAW264.7 [8],Dose-Dependent Effect
same,Activity,RAW264.7 [9],Dose-Dependent Effect
same,Activity,RAW264.7 [10],Dose-Dependent Effect
same,Activity,RAW264.7 [11],Dose-Dependent Effect
same,Activity,RAW264.7 [12],Dose-Dependent Effect
same,Activity,RAW264.7 [13],Dose-Dependent Effect
same,Activity,RAW264.7 [14],Dose-Dependent Effect
same,Activity,RAW264.7 [15],Dose-Dependent Effect
same,Activity,RAW264.7 [16],Dose-Dependent Effect
same,Activity,RAW264.7 [17],Dose-Dependent Effect
same,Activity,RAW264.7 [18],Dose-Dependent Effect
same,Activity,RAW264.7 [19],Dose-Dependent Effect
same,Activity,RAW264.7 [20],Dose-Dependent Effect
same,Activity,RAW264.7 [21],Dose-Dependent Effect
same,Activity,RAW264.7 [22],Dose-Dependent Effect
same,Activity,RAW264.7 [23],Dose-Dependent Effect
same,Activity,RAW264.7 [24],Dose-Dependent Effect
same,Activity,Mus musculus [25],Dose-Dependent Effect
same,Activity,Mus musculus [26],Dose-Dependent Effect
same,Activity,Mus musculus [27],Active
same,Activity,Mus musculus [28],Active
same,Activity,Mus musculus [29],Active
same,Activity,Mus musculus [30],Active
same,inhibition,Mus musculus [31],Active
same,Activity,Mus musculus [32],Active
